Tests used:
[1] = system: human CD8 T cells from umbilical cord blood; test: Human cord blood PBMC culture with anti-CD3/CD28 beads, CD62L in CD8 T cells by flow cytometry; format: cell-based; details: 25 μM; day 11; 3 different donors; versus DMSO
Description: To most closely mimic the experimental conditions that were successful by using naïve mouse OT1 CD8 T cells, it was tested whether the MPCi on the most naïve human CD8+ T cells can be obtained, i.e. from umbilical cord blood (FIG. 1E).
Peripheral blood mononuclear cells were isolated from fresh umbilical vein cord blood on a Percoll gradient. PBMCs were then cultured in RPMI supplemented with 10% human serum. 10^4 PBMC's were seeded per well in a round bottom 96-well plate and activated with anti-CD3/CD28 beads at a 1:2 cell:bead ratio and 300 U/ml rhIL-2, in the presence of 25 μM UK5099 or DMSO. Cells were regularly split and CD62L expression was determined by flow cytometry on day 11.

[2] = system: transferred OT1 cells in LM-OVA infected mice; test: In vivo Listeria-Ova infection model after adoptive transfer of pre-treated OT1 cells; set-up: species or system mouse
Excerpt: In order to evaluate whether this memory phenotype is maintained in vivo, 10^5 MPCi- or DMSO-treated OT1 cells were intravenously injected in healthy mice. Twenty-four hours after cell transfer, the mice were infected with a sub-lethal dose of ovalbumine-expressing Listeria monocytogenes (LM-OVA, 2000 CFU i.v.) (FIG. 1H). […] Consequently, 28 days after LM-OVA infection, during the memory phase of the immune reaction, the proportion of central memory T cells (CD44+CD62L+) among the transferred cells in the blood was larger in mice that received cells pre-treated with MPCi (FIG. 1K). Importantly, the effects of the MPC inhibitor were target specific, since an increase in memory T cell differentiation could also be observed when MPC1 KO T cells were transferred in this Listeria model (FIG. 1L-N). In summary, MPCi-treated cells display a consistent memory phenotype upon in vivo transfer in an infection model.
Activated CD45.1+OT-1 splenocytes were culture in vitro for 7 days as described above, collected and purified on a Ficoll gradient, allowing to separate dead and live splenocytes. Live splenocytes were counted with Trypan blue stain 0.4%. 100′000 live splenocytes were transferred into CD45.2+ host mice by tail vein injection.
Recombinant bacteria Listeria monocytogenes deficient for actA and expressing the ovalbumin (Ova) peptide SIINFEKL were expanded and tittered. Optical density measured with a spectrophotometer was used to determine bacterial concentration and 2000 CFU were administered in each mouse by tail vein injection, […] after adoptive cell transfer. Blood samples were collected and processed for surface markers and cytokine production analyses.
Antibody panels for blood analyses contained: CD8-PE-texas-Red, CD45.1-Pacific blue, CD45.2-FITC, CD127-PE, KLRG1-PE-Cy7, CD62L-APC, CD44-APC-Cy7, and CD27-PerCP-Cy5.5.

OT1 T cells = test: RNA sequencing of OT1 T cells; format: cell-based, mouse; details: day 7; compared to DMSO
Description: To evaluate the effects of MPC inhibition on T cell differentiation, OT1 splenocytes were cultured in the presence of 1 μg/ml ovalbumin-derived N4 (SIINFEKL) peptide, 100 IU/ml recombinant human IL-2 (rhIL-2) and the MPC inhibitor (MPCi) UK5099 at 75 μM or control DMSO for 3 days. The inhibitor or DMSO was then washed away and the cells were cultured for 4 more days in the presence of 100 IU/ml IL-2 and 10 ng/ml rhIL-7 (FIG. 1A). […] Thus, the increase in the memory markers upon MPCi in vitro treatment occurs at the transcriptional level.
[…] Purity-filtered reads were adapters and quality trimmed with Cutadapt (v. 1.8, Martin 2011). Reads matching to ribosomal RNA sequences were removed with fastq_screen (v. 0.9.3). Remaining reads were further filtered for low complexity with reaper (v. 15-065, Davis et al. 2013). Reads were aligned against Mus musculus.GRCm38.86 genome using STAR (v. 2.5.2b, Dobin et al. 2013). The number of read counts per gene locus was summarized with htseq-count (v. 0.6.1, Anders et al. 2014) using Mus musculus.GRCm38.86gene annotation. Quality of the RNA-seq data alignment was assessed using RSeQC (v. 2.3.7, Wang et al. 2012). Reads were also aligned to the Mus musculus.GRCm38.86 transcriptome using STAR (v. 2.5.2b, Dobin et al. 2013) and the estimation of the isoforms abundance was computed using RSEM (v. 1.2.31, Li and Dewey 2011). Statistical analysis was performed for genes in R (R version 3.4.0). An analysis with all genes, including mitochondria, was done. Genes with less than one count per million in all samples were filtered out. Library sizes were scaled using TMM normalization (EdgeR package version 3.14.0; Robinson et al. 2010) and log-transformed with EdgeR cpm function.
Differential expression was computed with limma (Ritchie et al. 2015) by fitting the samples into a linear model using all conditions as factors and correcting for batch effect by introducing factors for the replicates (=paired analysis).

adult human CD8 T cells = test: Adult human PBMC activation with anti-CD3/CD28 beads, T cell phenotype by flow cytometry; format: cell-based; details: adult PBMCs, day 9, vs DMSO
Description: FIG. 7: MPC inhibition during the activation and culture of adult human T cells induces a memory phenotype. (A) Experimental design. PBMCs were isolated from adult healthy volunteers and activated with anti-CD3/CD28 beads in the presence of DMSO or UK5099 (25 μM). Beads were removed at day 5 and T cell phenotype was analysed at day 9. (B) Percentage of CD8 T cells expressing the memory marker CD62L. (C) The mean fluorescent intensity of CD62L in the respective positive population. (D) Percentage of CD8 T cells expressing markers that allows their identification as stem cell memory T cells (TSCM). (E-F) Mitochonrial mass (identified by MitoGreen staining, E) and mitochondrial membrane potential (TMRM, F), measured by flow cytometry and expressed as fold change as compared to DMSO. (G) Mitochondrial membrane potential normalized for the mitochondrial mass, expressed as the ratio of […], fold change as compared to DMSO. Pooled data from 2 independant experiments. ns: non-significant, *p<0.05, **[…], ***p<0.001. Data represents mean±s.e.m.
Heparinised blood was diluted with PBS and pipetted on top of Ficoll-paque (LymphoPrep). After centrifugation at 1800 rpm for 20 minutes at room temperature, the layer of cells at the intersection, containing the PBMCs was removed, washed and resuspended at 5×10^5 cells/ml of RPMI medium containing 8% human serum (AB serum), antibiotics, 2 mM L-Glutamine, 1% non-essential amino acids, 1 mM sodium pyruvate and 50 μM β-mercaptoethanol (all Gibco). Cells were activated with Human T-activator CD3/CD28 Dynabeads at a 1 bead/cell ratio with 150 IU/ml human recombinant IL2 and DMSO or 25 μM UK5099. Throughout the culture, cells were regularly split when necessary and beads were removed at day 5. At day 9, a fraction of the cells was stained with antibodies for flow cytometry analysis or for mitochondrial analysis.

N#CC(=Cc1cn(-c2ccccc2)c2ccccc12)C(=O)O [UK5099, 2-cyano-3-(1-phenyl-1H-indol-3-yl)-2-propenoic acid]
CD62L expression in human cord blood CD8 T cells [1]: significant increase | proportion of central memory T cells (CD44+CD62L+) among the transferred cells in the blood ([2]; 28 days after LM-OVA infection, vs DMSO): larger | frequency of memory precursor cells (CD127+, KLRG1low) ([2]; day 7 post-LM-OVA, blood, pre-treated OT1 cells vs DMSO): significantly increased | frequency of the transferred cells in blood ([2]; weekly bleeding, peak of immune response and contraction phase, cells pre-treated in vitro): did not reveal significant differences | Ccr7 expression, RNA sequencing (OT1 T cells): increased | Sell (CD62L) expression, RNA sequencing (OT1 T cells): at least 1.5 fold | Tcf7 expression, RNA sequencing (OT1 T cells): increased | population of stem cell-like memory T cells (TSCM) (adult human CD8 T cells; 25 μM): increased | population of CD8 T cells positive for CD62L (adult human CD8 T cells; UK5099 25 μM): further induce | mean fluorescent intensity of the CD62L signal in the CD62L-positive cells (adult human CD8 T cells): increased

From US20230302131A1, “MPC INHIBITION FOR PRODUCING T-CELLS WITH A MEMORY PHENOTYPE” (UNIVERSITÉ DE LAUSANNE, priority 2020, published 2023)
